In paper PMC3789979, “Recruitment of a Cytoplasmic Chaperone Relay by the A2A Adenosine Receptor” (The Journal of Biological Chemistry, 2013):
Where two headings read alike, the source gives them in different places.

Key:
[1] = test system: A2A receptor-chaperone complexes, HEK293 cells stably expressing FS2-N-A2AR; assay: Co-affinity precipitation of receptor-chaperone complexes after inhibitor treatment; assay type: cell-based, human; settings: 17-DMAG 2 μM; for amount of HSP90 co-affinity-purified with the A2A receptor / association of HSP70 with the A2A receptor / higher glycosylated, mature form of the co-purified A2A receptor (ratio mature/core): 24 h, kifunensine 2 μM, bortezomib 10 nM
Method: (§1) Cells (1–5 × 10^7 cells) were harvested, and membranes were prepared as described previously ([14]). Membranes were solubilized as described above, followed by incubation with streptavidin-conjugated beads (G2S-N-A2A) or Strep-Tactin-Sepharose beads (FSt2-N-A2A) for 2 h at 4 °C. […] Thereafter, preequilibrated protein G-Sepharose beads were added and incubated for an additional 3 h at 4 °C. The beads were washed twice with 0.5 ml of solubilization buffer. […] A2A receptor and HSP90 were detected by immunoblotting using either anti-A2AR or anti-FLAG and anti-HSP90α (Abcam, Cambridge, UK) antibodies, respectively. As a control, membranes were harvested from untransfected HEK293 cells and processed in parallel. Immunoblots were quantified as described above. Where required, nitrocellulose membranes of primary and secondary antibody labeling were stripped by incubation with KSCN buffer (3 M KSCN, 150 mM KCl, 10 mM NaH2PO4, 100 mg/liter polyvinylpyrrolidone K30, 1-ethenylpyrrolidin-2-one) for 20 min at 23 °C to afford detection of additional proteins with the pertinent antibodies (i.e. anti-HSP90β, anti-HSC70, anti-HOP, anti-P23, and anti-CHIP, all from Abcam).
FIGURE 7. […] B, immunoblots done as in A (top) were analyzed with ImageJ. […] C, the A2A receptor was immunoprecipitated from cells that had been incubated in the presence and absence of 17-DMAG (2 μM) as in A. The levels of HSC70 (C, top), HOP (C, second from top), P23 (C, third from top), and CHIP (C, bottom) were determined by immunoblotting and quantified with ImageJ.

[2] = test system: endogenously expressed A2A receptor in PC12 cells; assay: [3H]ZM241385 binding to membranes of inhibitor-pretreated PC12 cells; assay type: cell-based; settings: for increase in steady state levels of active A2A receptors: PC12 cells, kifunensine 2 μM, bortezomib 10 nM; for levels of functional (binding-competent) receptors: 24 h pretreatment, 2 μM, 10 nM [3H]ZM241385, PC12 membranes
Method: (§2) After 60 min at 23 °C, the reaction was terminated by rapid filtration over glass fiber filters (Whatman-GE Healthcare). […] Total receptor numbers were also determined by measuring the radioactivity released after dissolving the samples in 1 M NaOH ([22]). […] The number of viable cells was determined manually using a microscope counting chamber.
(§3) FIGURE 9. Effect of HSP90 and/or proteasome inhibitors on the levels of endogenously expressed A2A receptor in PC12 cells. […] B, prior to membrane preparations of PC12 cells expressing the A2A receptor, cells were incubated in the absence and presence of 17-DMAG (2 μM), kifunensine (2 μM), and bortezomib (10 nM). […] After two washes, surface-bound radioligand was released by an acid strip and recovered in the supernatant. Assays were performed in quadruplicates. […] After membrane extraction and immunoprecipitation, aliquots (corresponding to 3 × 10^5 cells) of the immunoprecipitate were blotted for the A2A receptor (top), HSP90α, HSP70–1A, HOP, P23, and CHIP, as indicated. M, mature; C, core glycosylated.

[3] = test system: A2A receptor-chaperone complexes in PC12 cells; assay: Immunoprecipitation of endogenous A2A receptor from inhibitor-pretreated PC12 cells and immunoblotting; assay type: cell-based; settings: for fully glycosylated, slowly migrating band of the A2A receptor: kifunensine 2 μM, bortezomib 10 nM
Method: as §1, §3

[4] = test system: cell surface levels of the A2A receptor, HEK293 cells stably expressing FS2-N-A2AR; assay: Cell surface levels of the A2A receptor after 24 h HSP90 inhibitor treatment (acid-strip-sensitive [3H]ZM241385 binding); assay type: cell-based, human; settings: for EC50 relative to affinity for binding to HSP90: EC50 higher than HSP90 affinity of refs 27, 28
Method: as §2
FIGURE 5. […] Error bars, S.D. Data are from four independent experiments done in triplicate. Statistical significance was calculated by analysis of variance followed by Dunnett's multiple-comparison post hoc test (*, p < 0.05; ***, p < 0.001). B, HEK293 cells stably expressing the tagged version G2S-N-A2AR were incubated with increasing concentrations of radicicol or 17-DMAG.

[5] = test system: A2A receptor glycoforms, HEK293 cells stably expressing G2S-N-A2AR; assay: Immunoblot of A2A receptor glycoforms after HSP90 inhibitor treatment; assay type: cell-based, human; settings: saturating concentrations, 24 h
Method: as §1
FIGURE 5. […] Statistical significance was calculated by analysis of variance followed by Dunnett's multiple-comparison post hoc test (*, p < 0.05; ***, p < 0.001). […]

[6] = parameters: method as in PMID 20177028; settings: administered to people; cited from earlier work

Compound | amount of HSP90 co-affinity-purified with the A2A receptor [1] | association of HSP70 with the A2A receptor [1] | higher glycosylated, mature form of the co-purified A2A receptor (ratio mature/core) [1] | increase in steady state levels of active A2A receptors [2] | fully glycosylated, slowly migrating band of the A2A receptor ([3]; 24 h, 17-DMAG 2 μM) | EC50 ([4]; 24 h incubation, acid-strip-sensitive [3H]ZM241385 binding, read-out: EC50 for increase in cell surface levels of the A2A receptor) [nM] | EC50 relative to affinity for binding to HSP90 [4] | core glycosylated band of the A2A receptor (immunoblot) [5] | associated CHIP [1] | associated P23 [1] | co-precipitated HOP [1] | co-precipitated HSC70 [1] | levels of functional (binding-competent) receptors [2] | HSP90α, HSP70-1A and HSC70 recovered in the immunoprecipitate ([3]; 17-DMAG 2 μM, 24 h) | HOP recovered with the A2A receptor ([3]; pretreatment with DMAG) | P23 and CHIP recovered with the A2A receptor ([3]; pretreatment with DMAG) | half-life [6] [h] | EC50 ([4]; Homo sapiens, HEK293, read-out: EC50 for increase in cell surface levels of the A2A receptor) [nM]
CC(C)C[C@H](NC(=O)[C@H](Cc1ccccc1)NC(=O)c1cnccn1)B(O)O [bortezomib] | did not cause the accumulation | did not cause the accumulation | significant increase | about 1.5 fold | increased the abundance | – | – | – | – | – | – | – | – | – | – | – | – | –
CO[C@H]1/C=C\C=C(/C)C(=O)NC2=CC(=O)C(NCCN(C)C)=C(C[C@@H](C)C[C@H](OC)[C@H](O)[C@@H](C)/C=C(\C)[C@@H]1OC(N)=O)C2=O [17-DMAG, 17-dimethylaminoethylamino-17-demethoxygeldanamycin] | increased | augmented | significant increase | – | increased the abundance | ~1000 | about 3 fold | increased accumulation | decline | decrease in associated P23 (HSP90 co-chaperone), but this did not reach statistical significance | substantial increase | substantial increase | increased | abundant amounts | more | less | 24 | –
O=C1N[C@@H]2[C@@H](O)[C@@H](O)[C@H](O)[C@@H](CO)N2C1=O [kifunensine] | accumulation | accumulation | no significant increase | about 1.5 fold | increased the abundance | – | – | – | – | – | – | – | increased | – | – | – | – | –
C[C@@H]1C[C@H]2O[C@@H]2/C=C\C=C\C(=O)Cc2c(Cl)c(O)cc(O)c2C(=O)O1 [radicicol] | – | – | – | – | – | – | about 3 fold | increased accumulation | – | – | – | – | – | – | – | – | – | ~400
